The text below walks through data of PubChem BioAssay (NCI).

Test systems include RXF 393 renal; SK-MEL-28 melanoma; 786-0 renal; MALME-3M melanoma; SNB-75 CNS; SN12C renal; HOP-92 NSCLC; HCT-15 colon; A498 renal; SF-268 CNS; UACC-257 melanoma; IGROV1 ovarian; A549 NSCLC; SNB-19 CNS; OVCAR-8 ovarian; COLO 205 colon; OVCAR-5 ovarian.
Holding throughout (assay): NCI anticancer screen, dose series, 48 h

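All cell lines were grown in 96-well plates and treated with compound for 48 hours. The concentration for full growth arrest is given as TGI.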

For `CCCCCCCCCCCCn1[nH]c(C)c(C(=S)SCCCCCCCC)c1=O`, the TGI with RXF 393 renal is above 80.9 µM; in the experiment on SK-MEL-28 melanoma it was above 100 µM; with 786-0 renal it was above 100 µM; in the experiment with MALME-3M melanoma it was above 100 µM; in the experiment on SNB-75 CNS, above 100 µM; in the experiment on SN12C renal, above 100 µM. In addition, the TGI in the experiment on HOP-92 NSCLC, with HCT-15 colon, in the experiment with A498 renal, in the experiment with SF-268 CNS, in the experiment with UACC-257 melanoma and in the experiment with IGROV1 ovarian was above 100 µM in each case. In addition, the TGI in the experiment with A549 NSCLC is above 100 µM; in the experiment on SNB-19 CNS, above 100 µM; with OVCAR-8 ovarian it was above 88.1 µM; with COLO 205 colon, above 100 µM; in the experiment with OVCAR-5 ovarian, above 100 µM.
As to `CC(C(=O)c1ccc(Cl)cc1)C1OC(=O)C(Cl)=C1Cl` (stereo unspecified), the TGI in the experiment with RXF 393 renal is 35.4 µM; in the experiment with SK-MEL-28 melanoma, 57.1 µM; in the experiment on 786-0 renal, 36 µM; in the experiment with MALME-3M melanoma, 41.7 µM; in the experiment on SNB-75 CNS, above 100 µM; with SN12C renal, 56.3 µM. The TGI with HCT-15 colon was 50.5 µM; with A498 renal, above 100 µM; with SF-268 CNS, above 100 µM; with UACC-257 melanoma it was above 100 µM; in the experiment on IGROV1 ovarian, above 100 µM; with A549 NSCLC it was above 100 µM. Besides, the TGI was above 100 µM in the experiment with SNB-19 CNS, above 100 µM in the experiment on OVCAR-8 ovarian, 51 µM with COLO 205 colon and above 100 µM in the experiment with OVCAR-5 ovarian.
Take `Cc1nc(Nc2ccccc2)sc1C(=O)NNc1ccc([N+](=O)[O-])cc1[N+](=O)[O-]`: the TGI with RXF 393 renal is 78.5 µM; in the experiment with SK-MEL-28 melanoma, above 100 µM; in the experiment with 786-0 renal, above 100 µM; in the experiment with MALME-3M melanoma, above 100 µM; in the experiment on SNB-75 CNS it was 95.3 µM; in the experiment with SN12C renal, above 100 µM. Moreover, the TGI with HCT-15 colon, in the experiment on SF-268 CNS, in the experiment with UACC-257 melanoma, in the experiment on IGROV1 ovarian, in the experiment with A549 NSCLC and with SNB-19 CNS was above 100 µM each time. In addition, the TGI with OVCAR-8 ovarian, in the experiment on COLO 205 colon and in the experiment on OVCAR-5 ovarian was above 100 µM in each case.
As to `CCC1(N=[N+]=[N-])C(=O)c2ccccc2N(c2ccccc2)C1=O` (stereo unspecified), the TGI with SK-MEL-28 melanoma, in the experiment on 786-0 renal, in the experiment with MALME-3M melanoma, in the experiment on SNB-75 CNS, with SN12C renal and with HOP-92 NSCLC was above 100 µM in each case. The TGI in the experiment on HCT-15 colon, in the experiment with A498 renal, in the experiment with SF-268 CNS, in the experiment with UACC-257 melanoma, with IGROV1 ovarian and in the experiment on A549 NSCLC was above 100 µM throughout. For the same molecule, the TGI in the experiment on SNB-19 CNS, in the experiment on OVCAR-8 ovarian, in the experiment on COLO 205 colon and in the experiment with OVCAR-5 ovarian was above 100 µM in each case.
With `Cc1cccc(C)c1NC(=O)CCC(=O)NC(N)=S`, the TGI in the experiment on RXF 393 renal, with 786-0 renal, with MALME-3M melanoma, in the experiment with SNB-75 CNS, with SN12C renal and in the experiment with HOP-92 NSCLC was above 100 µM each time. The TGI in the experiment on HCT-15 colon, in the experiment on A498 renal, with UACC-257 melanoma, with IGROV1 ovarian, with A549 NSCLC and with SNB-19 CNS was above 100 µM each time. In addition, the TGI in the experiment on OVCAR-8 ovarian, with COLO 205 colon and in the experiment with OVCAR-5 ovarian was above 100 µM in each case.
As for `Brc1ccc2c(c1)C1C(CO2)C(c2ccccc2)=NN1c1ccccc1` (stereo unspecified), the TGI with RXF 393 renal, in the experiment with SK-MEL-28 melanoma, in the experiment on 786-0 renal, with MALME-3M melanoma, in the experiment with SNB-75 CNS and in the experiment on HOP-92 NSCLC was above 100 µM each time. Also, the TGI with A498 renal, with SF-268 CNS, in the experiment with UACC-257 melanoma, with IGROV1 ovarian, in the experiment with A549 NSCLC and in the experiment with SNB-19 CNS was above 100 µM throughout. For the same molecule, the TGI in the experiment on OVCAR-8 ovarian, in the experiment on COLO 205 colon and in the experiment with OVCAR-5 ovarian was above 100 µM throughout.
`COC(=O)NC(=O)c1cn(CCCOC(=O)CCCCCCCCC(=O)OCCCn2cc(C(=O)NC(=O)OC)c(=O)[nH]c2=O)c(=O)[nH]c1=O`: the TGI in the experiment with RXF 393 renal is 75 µM; in the experiment on SK-MEL-28 melanoma, above 100 µM; with 786-0 renal it was above 100 µM; in the experiment with MALME-3M melanoma, above 100 µM; in the experiment with SNB-75 CNS, 50.1 µM; with SN12C renal, above 100 µM. Moreover, the TGI with HOP-92 NSCLC was 95.2 µM; in the experiment on HCT-15 colon, above 100 µM; in the experiment with A498 renal it was above 100 µM; in the experiment on SF-268 CNS, above 100 µM; with UACC-257 melanoma it was above 100 µM; in the experiment on IGROV1 ovarian, above 100 µM. Further, the TGI in the experiment with A549 NSCLC is above 100 µM; in the experiment on SNB-19 CNS, 76.5 µM; with OVCAR-8 ovarian, above 100 µM; with OVCAR-5 ovarian it was above 100 µM.
As for `CCCCCCCCCCCC(=O)c1c(O)cccc1O`, the TGI was determined as 40.4 µM in the experiment on RXF 393 renal; 32 µM in the experiment on SK-MEL-28 melanoma; 32.8 µM in the experiment on 786-0 renal; 29.5 µM in the experiment with MALME-3M melanoma; 31.9 µM in the experiment with SNB-75 CNS; 34.7 µM with SN12C renal. Moreover, the TGI in the experiment on HOP-92 NSCLC is 32.3 µM; with HCT-15 colon it was 33.4 µM; in the experiment on SF-268 CNS, 30.4 µM; in the experiment with UACC-257 melanoma, 30.8 µM; in the experiment with IGROV1 ovarian, 32.4 µM; in the experiment on A549 NSCLC, 33.7 µM. The TGI in the experiment on SNB-19 CNS worked out at 30.4 µM; with OVCAR-8 ovarian it was 33.5 µM; in the experiment with COLO 205 colon it was 29 µM; with OVCAR-5 ovarian it was 28.5 µM.
